Results published in ChEMBL document CHEMBL1156449, “The nucleoside analog sangivamycin induces apoptotic cell death in breast carcinoma MCF7/adriamycin-resistant cells via protein kinase Cdelta and JNK activation” (J Biol Chem, 2007).
Active and inactive are the calls of the source. The calls are words filed in the database; no cut-off is given here.

How the values were obtained:
MCF/ADR [1] = experiment: Cytocidal effect in human multidrug resistant MCF/ADR cells assessed as decrease in number of viable cells at 30 nM after 6 days by MTT colorimetric assay; format: functional, cell-based
MCF/WT [2] = experiment: Cytostatic effect in human drug sensitive MCF/WT cells assessed as slight increase in number of viable cells at 30 nM after 6 days by MTT colorimetric assay; format: functional, cell-based
[3] = Cell cycle arrest in human drug-sensitive MCF/WT cells assessed as accumulation at G2/M phase at 0.3 uM after 24 hrs by propidium fluorescence flow cytometry; format: functional, cell-based
[4] = Cell cycle arrest in human drug-sensitive MCF/WT cells assessed as accumulation at sub G0/G1 phase at 0.3 uM after 48 hrs by propidium fluorescence flow cytometry; format: functional, cell-based
[5] = Cell cycle arrest in human drug-sensitive MCF/WT cells assessed as accumulation at S phase at 0.3 uM after 72 hrs by propidium fluorescence flow cytometry; format: functional, cell-based
[6] = Cell cycle arrest in human drug-sensitive MCF/WT cells assessed as accumulation at G2/M phase at 0.3 uM after 72 hrs by propidium fluorescence flow cytometry; format: functional, cell-based
[7] = Cell cycle arrest in human multidrug resistant MCF/ADR cells assessed as accumulation at sub G0/G1 phase at 0.3 uM after 24 hrs by propidium fluorescence flow cytometry; format: functional, cell-based
[8] = Cell cycle arrest in human multidrug resistant MCF/ADR cells assessed as accumulation at sub G0/G1 phase at 0.3 uM after 48 hrs by propidium fluorescence flow cytometry; format: functional, cell-based
[9] = Cell cycle arrest in human multidrug resistant MCF/ADR cells assessed as accumulation at G0/G1 phase at 0.3 uM after 72 hrs by propidium fluorescence flow cytometry; format: functional, cell-based
MCF/WT [10] = experiment: Induction of apoptosis in human drug sensitive MCF/WT cells assessed as propidium iodide binding to phosphatidylserine at 0.3 uM after 6 hrs; format: functional, cell-based
MCF/WT [11] = experiment: Increase in wild-type full length p53 accumulation in human drug-sensitive MCF/WT cells at 0.3 uM by immunoblot analysis; format: functional, cell-based
MCF/WT [12] = experiment: Increase in p21CIP accumulation in human drug-sensitive MCF/WT cells at 0.3 uM after 48 hrs by immunoblot analysis; format: functional, cell-based
MCF/ADR [13] = experiment: Reduction in induction of apoptosis in SP600125 pretreated human multidrug resistant MCF/ADR cells assessed as reduction of cleavage of lamin A at 0.3 uM after 48 hrs by immunoblot analysis; format: functional, cell-based
MCF/ADR [14] = experiment: Increase in Bcl-x/s levels in human multidrug resistant MCF/ADR cells at 0.3 uM by immunoblot analysis; format: functional, cell-based
MCF/ADR [15] = experiment: Induction of apoptosis in human multidrug resistant MCF/ADR cells assessed as cleavage of lamin A at 0.3 uM by immunoblot analysis; format: functional, cell-based
MCF/WT [16] = experiment: Induction of apoptosis in human drug-sensitive MCF/WT cells assessed as cleavage of lamin A at 0.3 uM by immunoblot analysis; format: functional, cell-based
MCF/ADR [17] = experiment: Induction of apoptosis in human multidrug resistant MCF/ADR cells assessed as accumulation of PARP at 0.3 uM after 48 hrs by immunoblot analysis; format: functional, cell-based
MCF/ADR [18] = experiment: Induction of apoptosis in human multidrug resistant MCF/ADR cells assessed as accumulation of PARP at 0.3 uM after 72 hrs by immunoblot analysis; format: functional, cell-based
MDA-MB-231 = experiment: Induction of apoptosis in human multidrug resistant MDA-MB-231 cells assessed as accumulation of PARP at 0.3 uM after 48 hrs by immunoblot analysis; format: functional, cell-based
MCF-10A = experiment: Induction of apoptosis in human MCF10A cells assessed as accumulation of PARP at 0.3 uM after 48 hrs by immunoblot analysis; format: functional, cell-based
MCF/WT [19] = experiment: Induction of apoptosis in human drug-sensitive MCF/WT cells assessed as activation of caspase 7 at 0.3 uM by immunoblot analysis; format: functional, cell-based
MCF/ADR [20] = experiment: Inhibition of induction of apoptosis in human multidrug resistant MCF/ADR cells assessed as inhibition of cleavage of PARP at 0.3 uM after 48 hrs by immunoblot analysis in presence of pan-specific inhibitor; format: functional, cell-based
MCF/ADR [21] = experiment: Inhibition of induction of apoptosis in human multidrug resistant MCF/ADR cells assessed as inhibition of cleavage of lamin A at 0.3 uM after 48 hrs by immunoblot analysis in presence of caspase 9-specific inhibitor; format: functional, cell-based
MCF/WT [22] = experiment: Induction of JNK p46 isoform phosphorylation in human drug-sensitive MCF/WT cells at 0.3 uM after 48 hrs by immunoblot analysis; format: cell-based
MCF/ADR [23] = experiment: Blockade of apoptosis induction in human multidrug resistant MCF/ADR cells at 0.3 uM after 48 hrs in presence of rottlerin; format: functional, cell-based
[24] = target: T1, c-Jun N-terminal kinase, JNK (Homo sapiens) (UniProt P45983+P53779+P45984); experiment: Induction of JNK activity in human multidrug resistant MCF/ADR cells assessed as mitochondrial localization of phosphorylated JNK with Bcl-x/l; format: cell-based
[25] = target: T1, c-Jun N-terminal kinase, JNK (Homo sapiens); experiment: Effect on mitochondrial localization of phosphorylated JNK with Bcl-x/l in human multidrug resistant MCF/ADR cells assessed as enhanced JNK activity by Mitotracker red staining; format: cell-based
MCF/ADR [26] = experiment: Reduction in induction of apoptosis in human multidrug resistant MCF/ADR cells assessed as suppression of lamin A cleavage at 0.3 uM after 48 hrs by immunoblot analysis in presence of rottlerin; format: functional, cell-based
MCF/ADR [27] = experiment: Reduction in induction of apoptosis in human multidrug resistant MCF/ADR cells assessed as suppression of PARP cleavage at 0.3 uM after 48 hrs by immunoblot analysis in presence of rottlerin; format: functional, cell-based
[28] = Inhibition of PKC
Rhodopsin kinase GRK1 = target: T2, Rhodopsin kinase GRK1 (Homo sapiens, UniProt Q15835); experiment: Inhibition of rhodopsin kinase
T2 sequence (Q15835 whole entry): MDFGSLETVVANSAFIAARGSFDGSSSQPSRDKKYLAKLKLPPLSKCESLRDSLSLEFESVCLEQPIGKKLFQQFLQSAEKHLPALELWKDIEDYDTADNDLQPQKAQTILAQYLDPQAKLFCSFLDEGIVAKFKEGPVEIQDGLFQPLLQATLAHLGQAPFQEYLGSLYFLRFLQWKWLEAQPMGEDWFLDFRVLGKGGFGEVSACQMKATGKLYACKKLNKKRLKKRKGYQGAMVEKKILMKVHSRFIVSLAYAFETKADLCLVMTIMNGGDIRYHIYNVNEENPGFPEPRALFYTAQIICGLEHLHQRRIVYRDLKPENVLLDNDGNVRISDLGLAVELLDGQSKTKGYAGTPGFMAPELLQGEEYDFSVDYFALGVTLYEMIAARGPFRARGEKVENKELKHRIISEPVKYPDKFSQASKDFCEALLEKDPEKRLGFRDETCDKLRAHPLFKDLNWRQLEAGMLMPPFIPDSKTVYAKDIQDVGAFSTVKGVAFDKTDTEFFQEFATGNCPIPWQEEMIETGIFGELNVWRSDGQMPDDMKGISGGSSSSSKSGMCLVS

[29] = Reduction in induction of c-Jun expression in human multidrug resistant MCF/ADR cells at 0.3 uM after 48 hrs by immunoblot analysis in presence of rottlerin; format: functional, cell-based
[30] = target: Transcription factor Jun (Homo sapiens) (UniProt P05412); experiment: Induction of c-Jun phosphorylation in human drug-sensitive MCF/WT cells at 0.3 uM; format: cell-based
Sequence of Transcription factor Jun (Homo sapiens) (P05412 whole entry): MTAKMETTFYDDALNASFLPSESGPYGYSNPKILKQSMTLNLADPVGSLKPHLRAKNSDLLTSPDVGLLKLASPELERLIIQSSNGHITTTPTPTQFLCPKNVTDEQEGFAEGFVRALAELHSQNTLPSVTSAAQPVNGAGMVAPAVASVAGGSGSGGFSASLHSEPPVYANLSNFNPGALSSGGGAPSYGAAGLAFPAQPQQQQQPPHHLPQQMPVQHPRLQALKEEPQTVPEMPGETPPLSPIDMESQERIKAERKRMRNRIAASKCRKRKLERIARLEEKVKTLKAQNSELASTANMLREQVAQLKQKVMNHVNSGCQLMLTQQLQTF

NC(=O)c1cn([C@@H]2O[C@H](CO)[C@@H](O)[C@H]2O)c2ncnc(N)c12 [SANGIVAMYCIN]
Activity (MCF/ADR [1]): Active | Activity (MCF/WT [2]): Active | Activity [3]: 28% | Activity [4]: 3% | Activity [5]: 11% | Activity [6]: 28% | Activity [7]: 9% | Activity [8]: 40% | Activity [9]: 17% | Activity (MCF/WT [10]): inactive | Activity (MCF/WT [11]): Active | Activity (MCF/WT [12]): Active | Activity (MCF/ADR [13]): Active | Activity (MCF/ADR [14]): Active | Activity (MCF/ADR [15]): Active | Activity (MCF/WT [16]): inactive | Activity (MCF/ADR [17]): Active | Activity (MCF/ADR [18]): Active | Activity (MDA-MB-231): Active | Activity (MCF-10A): inactive | Activity (MCF/WT [19]): inactive | Activity (MCF/ADR [20]): Active | Activity (MCF/ADR [21]): Active | Activity (MCF/WT [22]): inactive | Activity (MCF/ADR [23]): Active | Activity [24]: Active | Activity [25]: Active | Activity (MCF/ADR [26]): Active | Activity (MCF/ADR [27]): Active | Ki [28]: 10 µM | Ki (Rhodopsin kinase GRK1): 0.18 µM | Activity [29]: Active | Activity [30]: inactive
